Series [1] addresses T1, Gallus N-acetyl-α-D-galactosaminidase (Gallus gallus, UniProt Q90744).
T1 construct: the cDNA clone corresponds to the region of the mRNA encoding the mature polypeptide for the chicken α-N-acetyl-galactosaminidase; from tissue; host or cells: chicken liver
T1 sequence (Q90744 1-405 S162A): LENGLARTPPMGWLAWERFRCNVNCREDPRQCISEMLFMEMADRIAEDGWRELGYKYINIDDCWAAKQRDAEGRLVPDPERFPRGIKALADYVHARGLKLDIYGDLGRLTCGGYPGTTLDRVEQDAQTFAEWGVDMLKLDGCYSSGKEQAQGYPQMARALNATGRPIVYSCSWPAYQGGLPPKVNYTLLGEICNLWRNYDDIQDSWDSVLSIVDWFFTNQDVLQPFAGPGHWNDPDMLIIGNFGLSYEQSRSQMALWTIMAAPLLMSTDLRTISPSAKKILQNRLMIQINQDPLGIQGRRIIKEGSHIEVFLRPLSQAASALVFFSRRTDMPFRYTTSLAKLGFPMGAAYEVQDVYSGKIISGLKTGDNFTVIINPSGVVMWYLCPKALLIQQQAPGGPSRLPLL
Nature of the series: Substrate specificity (relative activity). Type of series: biochemical, Gallus domesticus. Particulars: % of enzyme activity on the corresponding conjugate, 2.5 mM PNP conjugates, pH 3.5.

Substrate in series [2]: CC(=O)N[C@H]1[C@@H](Oc2ccc([N+](=O)[O-])cc2)O[C@H](CO)[C@H](O)[C@@H]1O
Kind of series: Kinetic parameters (Km, turnover number) of Gallus enzyme. It is filed as biochemical, Gallus domesticus.
Method: (§1) The Kms for ONP- and PNP-N-acetyl-α-D-galactosaminide were determined by varying the substrate concentration in 50 mM Na citrate+1 mg/ml BSA, pH 3.5.

Substrate in series [3]: CC(=O)N[C@H]1[C@@H](Oc2ccccc2[N+](=O)[O-])O[C@H](CO)[C@H](O)[C@@H]1O
The series is described as above. Type of series: biochemical, Gallus domesticus. The conditions noted are these: other: Table III, Example 1 preparation, 50 mM Na citrate + 1 mg/ml BSA, pH 3.5, mean of six determinations, 37.0 °C.
Method: as §1

Substrate in series [4]: O=[N+]([O-])c1ccc(O[C@H]2O[C@H](CO)[C@H](O)[C@H](O)[C@H]2O)cc1
The description is as above. It is filed as biochemical, Gallus domesticus. Particulars: other: Table III, Example 1 preparation, 50 mM Na citrate + 1 mg/ml BSA, pH 3.5, mean of six determinations, 37.0 °C.
Method: as §1

Series [5] is described as follows: Enzymatic activity quantitated during the purification. Type of series: biochemical. Particulars: Table V, improved (batch) purification; mean from three different preps. The procedure:
Enzymatic activity was quantitated during the purification by measuring production of p-nitrophenol (PNP) from PNP-N-acetyl-α-D-galactosaminide or o-nitrophenol (ONP) from ONP-N-acetyl-α-D-galactosaminide. Enzyme aliquots were incubated in 200 μl of 50 mM Na citrate+1 mg/ml BSA+1.0 mM PNP-N-acetyl-α-D-galactosaminide, pH 3.5, at 37° C. The reactions were quenched with 1.0 ml of 0.25M Na2 CO3 and the OD 405 nm was measured. One unit of activity was defined as 1.0 μmole of substrate hydrolyzed per minute.

Where [6] appears, read: Table IV, Example 1 preparation.
[7] abbreviates: Table VI, improved purification (Example 2).
Where [8] appears, read: other: Example 2 batch preparation, pH 3.5, N=3, 37.0 °C.
[9] abbreviates: other: Table III, Example 1 preparation, 50 mM Na citrate + 1 mg/ml BSA, pH 3.5, mean of six determinations, 37.0 °C.

Substitutions are numbered along the chain they refer to.

With `Cc1cc(=O)oc2cc(O[C@H]3O[C@H](CO)[C@H](O)[C@H](O)[C@H]3O)ccc12` [4-MU-α-D-galactopyranoside], the “Relative Activity” value in series [1] (setting [6]) and in series [1] (setting [7]) was 100.00% each time.
With `O=[N+]([O-])c1ccc(O[C@@H]2O[C@H](CO)[C@@H](O)[C@H](O)[C@H]2O)cc1` [PNP-β-D-glucopyranoside], the “Relative Activity” value in series [1] (setting [6]) and in series [1] (setting [7]) was below 0.08% throughout.
Turning to `CC(=O)N[C@H]1[C@@H](Oc2ccc([N+](=O)[O-])cc2)O[C@H](CO)[C@@H](O)[C@@H]1O` [PNP-N-acetyl-α-D-glucosaminide], the “Relative Activity” value in series [1] (setting [6]) and in series [1] (setting [7]) was below 0.08% each time.
In the case of `CC(=O)N[C@H]1[C@H](Oc2ccc([N+](=O)[O-])cc2)O[C@H](CO)[C@H](O)[C@@H]1O` [PNP-N-acetyl-β-D-galactosaminide], the “Relative Activity” value in series [1] (setting [6]) and in series [1] (setting [7]) was below 0.08% throughout.
On to `C[C@@H]1O[C@@H](Oc2ccc([N+](=O)[O-])cc2)[C@@H](O)[C@H](O)[C@@H]1O` [PNP-α-L-fucopyranoside], for which the “Relative Activity” value in series [1] (setting [6]) and in series [1] (setting [7]) was below 0.08% throughout.
For the molecule `C[C@@H]1O[C@H](Oc2ccc([N+](=O)[O-])cc2)[C@@H](O)[C@H](O)[C@@H]1O` [PNP-β-L-fucopyranoside], the “Relative Activity” value in series [1] (setting [6]) and in series [1] (setting [7]) was below 0.08% each time.
Regarding `CC(=O)NC1C(O)CC(Oc2ccc3c(C)cc(=O)oc3c2)(C(=O)O)OC1C(O)C(O)CO` (stereo not drawn) [4-MU-N-acetyl-α-neuraminic acid], the “Relative Activity” value in series [1] (setting [6]) and in series [1] (setting [7]) was below 0.01% throughout.
As to `CC(=O)N[C@H]1[C@H](Oc2ccc([N+](=O)[O-])cc2)O[C@H](CO)[C@@H](O)[C@@H]1O` [PNP-N-acetyl-β-D-glucosaminide], the “Relative Activity” value in series [1] (setting [6]) and in series [1] (setting [7]) was below 0.08% each time.
Take `O=[N+]([O-])c1ccc(O[C@H]2O[C@H](CO)[C@@H](O)[C@H](O)[C@H]2O)cc1` [PNP-α-D-glucopyranoside]: the “Relative Activity” value in series [1] (setting [6]) and in series [1] (setting [7]) was below 0.08% each time.
With `CC(=O)N[C@H]1[C@@H](Oc2ccc([N+](=O)[O-])cc2)O[C@H](CO)[C@H](O)[C@@H]1O` [PNP-N-acetyl-α-D-galactosaminide], the “Relative Activity” value in series [1] (setting [6]) and in series [1] (setting [7]) was 100.00% each time.
For `O=[N+]([O-])c1ccc(O[C@@H]2OC[C@H](O)[C@H](O)[C@H]2O)cc1` [PNP-α-L-arabinopyranoside], the “Relative Activity” value in series [1] (setting [6]) and in series [1] (setting [7]) was below 0.08% in each case.
For `O=[N+]([O-])c1ccc(O[C@@H]2O[C@H](CO)[C@H](O)[C@H](O)[C@H]2O)cc1` [PNP-β-D-galactopyranoside], the “Relative Activity” value in series [1] (setting [6]) and in series [1] (setting [7]) was below 0.08% in each case.

B1: Gallus N-acetyl-α-D-galactosaminidase (Gallus gallus) (protein)
chain: T1 sequence (Q90744 1-405 S162A)
notes: the cDNA clone corresponds to the region of the mRNA encoding the mature polypeptide for the chicken α-N-acetyl-galactosaminidase; from tissue; host or cells: chicken liver
Usually Km stands for the concentration of substrate that gives half-maximal velocity. With B1, the Km is 0.86, S.D.=0.03 mM in series [2] (setting [8]); 1190 µM in series [2] (setting [9]); 2400 µM in series [3]; 10700 µM in series [4]. Moreover, the kcat in series [2] (setting [8]) was 3318, S.D.=118.5 moles substrate/mole enzyme/minute; in series [2] (setting [9]), 2370 Moles of substrate hydrolyzed per mole of enzyme per minute; in series [3] it was 637 Moles of substrate hydrolyzed per mole of enzyme per minute; in series [4] it was 201 Moles of substrate hydrolyzed per mole of enzyme per minute.

B2: Affinity Concentrate: purified α-N-acetyl-galactosaminidase after affinity column and concentration (Example 2) (protein, UniProt Q90744 1-405, looked up)
Alpha-N-acetylgalactosaminidas …: T1 sequence (Q90744 1-405 S162A) with A162S
B2: in series [5], the “Specific Activity” value was determined as 71.03 µmol/mg/min.
